# Reference: patent publication US10227344B2, “CK2 inhibitors, compositions and methods thereof” (Polaris Pharmaceuticals, Inc., priority 2016, dated 2019)
# Assays:
# Format in all cases: cell-based
# [1] = tested on: OVCAR-3; assay: Cancer cell panel, cell viability (resazurin): Ovarian, OVCAR-3; settings: OVCAR-3 (Ovarian), 72 hours; labelled drug combined with Example 3
# [2] = tested on: A2780; assay: Cancer cell panel, cell viability (resazurin): Ovarian, A2780; settings: 72 hours, labelled drug combined with Example 3
# [3] = tested on: Caov-3; assay: Cancer cell panel, cell viability (resazurin): Ovarian, Caov-3; settings: Caov-3 (Ovarian), 72 hours; labelled drug combined with Example 3
# [4] = tested on: Mia-Paca-2; assay: Cancer cell panel, cell viability (resazurin): Pancreatic, Mia-Paca-2; settings: Mia-Paca-2 (Pancreatic), 72 hours; labelled drug combined with Example 3
# [5] = tested on: Panc-1; assay: Cancer cell panel, cell viability (resazurin): Pancreatic, Panc-1; settings: Panc-1 (Pancreatic), 72 hours; labelled drug combined with Example 3
# [6] = tested on: BxPC3; assay: Cancer cell panel, cell viability (resazurin): Pancreatic, BxPC3; settings: 72 hours, labelled drug combined with Example 3
# [7] = tested on: HCT116; assay: Cancer cell panel, cell viability (resazurin): Colon, HCT116; settings: 72 hours, labelled drug combined with Example 3
# [8] = tested on: HT29; assay: Cancer cell panel, cell viability (resazurin): Colon, HT29; settings: 72 hours, labelled drug combined with Example 3
# Protocol: (§1) Cells were plated in 96-well plates and treated for 72 hours with a serially diluted CK2 inhibitor or anti-cancer drug or their combination. The suspension cell lines were treated right after plating, while the adherent cells were allowed to attach overnight prior to the start of the treatment.
# (§2) Cell viability was determined by adding resazurin to cell cultures and measuring fluorescence with a plate reader. Relative cell viability was calculated by dividing the cell viability signal from a test sample by that of a non-treated control. […] Bliss Independence and Highest Single Agent models were used to determine if there is synergy, additivity or antagonism between the CK2 inhibitor and an anti-cancer drug.
# [9] = tested on: Colo205; assay: Cancer cell panel, cell viability (resazurin): Colon, Colo205; settings: 72 hours, labelled drug combined with Example 3
# Protocol: as §1, §2
# [10] = tested on: LoVo; assay: Cancer cell panel, cell viability (resazurin): Colon, LoVo; settings: 72 hours, labelled drug combined with Example 3
# Protocol: as §1, §2
# [11] = tested on: DLD-1; assay: Cancer cell panel, cell viability (resazurin): Colon, DLD-1; settings: DLD-1 (Colon), 72 hours; labelled drug combined with Example 3
# [12] = tested on: H1299; assay: Cancer cell panel, cell viability (resazurin): NSCLC, H1299; settings: 72 hours, labelled drug combined with Example 3
# [13] = tested on: A549; assay: Cancer cell panel, cell viability (resazurin): NSCLC, A549; settings: 72 hours, labelled drug combined with Example 3
# [14] = tested on: H460; assay: Cancer cell panel, cell viability (resazurin): NSCLC, H460; settings: 72 hours, labelled drug combined with Example 3
# [15] = tested on: H1975; assay: Cancer cell panel, cell viability (resazurin): NSCLC, H1975; settings: 72 hours, labelled drug combined with Example 3
# Protocol: as §1, §2
# [16] = tested on: H23; assay: Cancer cell panel, cell viability (resazurin): NSCLC, H23; settings: 72 hours, labelled drug combined with Example 3
# Protocol: as §1, §2
# [17] = tested on: MDA-MB-231; assay: Cancer cell panel, cell viability (resazurin): Breast, MDA-MB-231; settings: MDA-MB-231 (Breast), 72 hours; labelled drug combined with Example 3
# [18] = tested on: MDA-MB-157; assay: Cancer cell panel, cell viability (resazurin): Breast, MDA-MB-157; settings: MDA-MB-157 (Breast), 72 hours; labelled drug combined with Example 3
# Protocol: as §1, §2
# [19] = tested on: BT-20; assay: Cancer cell panel, cell viability (resazurin): Breast, BT-20; settings: BT-20 (Breast), 72 hours; labelled drug combined with Example 3
# [20] = tested on: ZR-75-1; assay: Cancer cell panel, cell viability (resazurin): Breast, ZR-75-1; settings: ZR-75-1 (Breast), 72 hours; labelled drug combined with Example 3
# [21] = tested on: 786-O; assay: Cancer cell panel, cell viability (resazurin): Renal, 786-O; settings: 786-O (Renal), 72 hours; labelled drug combined with Example 3
# Protocol: as §1, §2
# [22] = tested on: Caki-1; assay: Cancer cell panel, cell viability (resazurin): Renal, Caki-1; settings: Caki-1 (Renal), 72 hours; labelled drug combined with Example 3
# [23] = tested on: Caki-2; assay: Cancer cell panel, cell viability (resazurin): Renal, Caki-2; settings: Caki-2 (Renal), 72 hours; labelled drug combined with Example 3
# [24] = tested on: A375; assay: Cancer cell panel, cell viability (resazurin): Melanoma, A375; settings: 72 hours, labelled drug combined with Example 3
# Protocol: as §1, §2
# [25] = tested on: SK-MEL-3; assay: Cancer cell panel, cell viability (resazurin): Melanoma, SK-MEL-3; settings: SK-MEL-3 (Melanoma), 72 hours; labelled drug combined with Example 3
# Protocol: as §1, §2
# [26] = tested on: SK-MEL-24; assay: Cancer cell panel, cell viability (resazurin): Melanoma, SK-MEL-24; settings: SK-MEL-24 (Melanoma), 72 hours; labelled drug combined with Example 3
# [27] = tested on: WM-115; assay: Cancer cell panel, cell viability (resazurin): Melanoma, WM-115; settings: WM-115 (Melanoma), 72 hours; labelled drug combined with Example 3
# Protocol: as §1, §2
# [28] = tested on: MeWO; assay: Cancer cell panel, cell viability (resazurin): Melanoma, MeWO; settings: 72 hours, labelled drug combined with Example 3
# Protocol: as §1, §2
# [29] = tested on: U266; assay: Cancer cell panel, cell viability (resazurin): multiple myeloma, U266; settings: 72 hours, labelled drug combined with Example 3
# [30] = tested on: RPMI8226; assay: Cancer cell panel, cell viability (resazurin): multiple myeloma, RPMI8226; settings: 72 hours, labelled drug combined with Example 3
# [31] = tested on: U87MG; assay: Cancer cell panel, cell viability (resazurin): Glioblastoma, U87MG; settings: 72 hours, labelled drug combined with Example 3
# Protocol: as §1, §2
# [32] = tested on: K562; assay: Cancer cell panel, cell viability (resazurin): Leukemia, K562; settings: 72 hours, labelled drug combined with Example 3
# [33] = tested on: HL60; assay: Cancer cell panel, cell viability (resazurin): Leukemia, HL60; settings: 72 hours, labelled drug combined with Example 3
# [34] = tested on: EOL-1; assay: Cancer cell panel, cell viability (resazurin): Leukemia, EOL-1; settings: EOL-1 (Leukemia), 72 hours; labelled drug combined with Example 3
# [35] = tested on: MOLT4; assay: Cancer cell panel, cell viability (resazurin): Leukemia, MOLT4; settings: 72 hours, labelled drug combined with Example 3
smiles,measurement,setting,value
"CC(=O)Nc1cccc(-n2c(=O)n(C3CC3)c(=O)c3c(Nc4ccc(I)cc4F)n(C)c(=O)c(C)c32)c1 [Trametinib, trametinib]","synergy, additivity or antagonism of the combination of Example 3 with the anti-cancer drug",[1],+ + (Slight synergy relative to each agent alone (CI = 0.75-0.9 by Bliss Independence Model))
same,"synergy, additivity or antagonism of the combination of Example 3 with the anti-cancer drug",[2],+ + (Slight synergy relative to each agent alone (CI = 0.75-0.9 by Bliss Independence Model))
same,"synergy, additivity or antagonism of the combination of Example 3 with the anti-cancer drug",[3],+ + (Slight synergy relative to each agent alone (CI = 0.75-0.9 by Bliss Independence Model))
same,"synergy, additivity or antagonism of the combination of Example 3 with the anti-cancer drug",[4],+ (Additive relative to each agent alone (CI = 0.9-1 by Bliss Independence Model and <0.9 by Highest Single Agent Model))
same,"synergy, additivity or antagonism of the combination of Example 3 with the anti-cancer drug",[5],+ (Additive relative to each agent alone (CI = 0.9-1 by Bliss Independence Model and <0.9 by Highest Single Agent Model))
same,"synergy, additivity or antagonism of the combination of Example 3 with the anti-cancer drug",[6],+ + + + (Strong synergy relative to each agent alone (CI < 0.4 by Bliss Independence Model))
same,"synergy, additivity or antagonism of the combination of Example 3 with the anti-cancer drug",[7],+ + + (Synergy relative to each agent alone (CI = 0.4-0.74 by Bliss Independence Model))
same,"synergy, additivity or antagonism of the combination of Example 3 with the anti-cancer drug",[8],+ (Additive relative to each agent alone (CI = 0.9-1 by Bliss Independence Model and <0.9 by Highest Single Agent Model))
same,"synergy, additivity or antagonism of the combination of Example 3 with the anti-cancer drug",[9],+ + + (Synergy relative to each agent alone (CI = 0.4-0.74 by Bliss Independence Model))
same,"synergy, additivity or antagonism of the combination of Example 3 with the anti-cancer drug",[10],+ + (Slight synergy relative to each agent alone (CI = 0.75-0.9 by Bliss Independence Model))
same,"synergy, additivity or antagonism of the combination of Example 3 with the anti-cancer drug",[11],+ + + (Synergy relative to each agent alone (CI = 0.4-0.74 by Bliss Independence Model))
same,"synergy, additivity or antagonism of the combination of Example 3 with the anti-cancer drug",[12],+ (Additive relative to each agent alone (CI = 0.9-1 by Bliss Independence Model and <0.9 by Highest Single Agent Model))
same,"synergy, additivity or antagonism of the combination of Example 3 with the anti-cancer drug",[13],+ + + + (Strong synergy relative to each agent alone (CI < 0.4 by Bliss Independence Model))
same,"synergy, additivity or antagonism of the combination of Example 3 with the anti-cancer drug",[14],+ + + (Synergy relative to each agent alone (CI = 0.4-0.74 by Bliss Independence Model))
same,"synergy, additivity or antagonism of the combination of Example 3 with the anti-cancer drug",[15],+ + + (Synergy relative to each agent alone (CI = 0.4-0.74 by Bliss Independence Model))
same,"synergy, additivity or antagonism of the combination of Example 3 with the anti-cancer drug",[16],+ + + (Synergy relative to each agent alone (CI = 0.4-0.74 by Bliss Independence Model))
same,"synergy, additivity or antagonism of the combination of Example 3 with the anti-cancer drug",[17],+ + (Slight synergy relative to each agent alone (CI = 0.75-0.9 by Bliss Independence Model))
same,"synergy, additivity or antagonism of the combination of Example 3 with the anti-cancer drug",[18],+ + (Slight synergy relative to each agent alone (CI = 0.75-0.9 by Bliss Independence Model))
same,"synergy, additivity or antagonism of the combination of Example 3 with the anti-cancer drug",[19],+ + + (Synergy relative to each agent alone (CI = 0.4-0.74 by Bliss Independence Model))
same,"synergy, additivity or antagonism of the combination of Example 3 with the anti-cancer drug",[20],+ + (Slight synergy relative to each agent alone (CI = 0.75-0.9 by Bliss Independence Model))
same,"synergy, additivity or antagonism of the combination of Example 3 with the anti-cancer drug",[21],+ + + (Synergy relative to each agent alone (CI = 0.4-0.74 by Bliss Independence Model))
same,"synergy, additivity or antagonism of the combination of Example 3 with the anti-cancer drug",[22],+ (Additive relative to each agent alone (CI = 0.9-1 by Bliss Independence Model and <0.9 by Highest Single Agent Model))
same,"synergy, additivity or antagonism of the combination of Example 3 with the anti-cancer drug",[23],− − − (Strongly antagonistic relative to each agent alone (CI > 1.49 by Highest Single Agent Model))
same,"synergy, additivity or antagonism of the combination of Example 3 with the anti-cancer drug",[24],+ + (Slight synergy relative to each agent alone (CI = 0.75-0.9 by Bliss Independence Model))
same,"synergy, additivity or antagonism of the combination of Example 3 with the anti-cancer drug",[25],+ (Additive relative to each agent alone (CI = 0.9-1 by Bliss Independence Model and <0.9 by Highest Single Agent Model))
same,"synergy, additivity or antagonism of the combination of Example 3 with the anti-cancer drug",[26],+ + (Slight synergy relative to each agent alone (CI = 0.75-0.9 by Bliss Independence Model))
same,"synergy, additivity or antagonism of the combination of Example 3 with the anti-cancer drug",[27],+ + (Slight synergy relative to each agent alone (CI = 0.75-0.9 by Bliss Independence Model))
same,"synergy, additivity or antagonism of the combination of Example 3 with the anti-cancer drug",[28],+ + (Slight synergy relative to each agent alone (CI = 0.75-0.9 by Bliss Independence Model))
same,"synergy, additivity or antagonism of the combination of Example 3 with the anti-cancer drug",[29],+ + (Slight synergy relative to each agent alone (CI = 0.75-0.9 by Bliss Independence Model))
same,"synergy, additivity or antagonism of the combination of Example 3 with the anti-cancer drug",[30],+ + (Slight synergy relative to each agent alone (CI = 0.75-0.9 by Bliss Independence Model))
same,"synergy, additivity or antagonism of the combination of Example 3 with the anti-cancer drug",[31],+ + (Slight synergy relative to each agent alone (CI = 0.75-0.9 by Bliss Independence Model))
same,"synergy, additivity or antagonism of the combination of Example 3 with the anti-cancer drug",[32],+ (Additive relative to each agent alone (CI = 0.9-1 by Bliss Independence Model and <0.9 by Highest Single Agent Model))
same,"synergy, additivity or antagonism of the combination of Example 3 with the anti-cancer drug",[33],+ + (Slight synergy relative to each agent alone (CI = 0.75-0.9 by Bliss Independence Model))
same,"synergy, additivity or antagonism of the combination of Example 3 with the anti-cancer drug",[34],+ + (Slight synergy relative to each agent alone (CI = 0.75-0.9 by Bliss Independence Model))
same,"synergy, additivity or antagonism of the combination of Example 3 with the anti-cancer drug",[35],+ (Additive relative to each agent alone (CI = 0.9-1 by Bliss Independence Model and <0.9 by Highest Single Agent Model))
